Biological target: T1, first (BRD4-BD1) or the second (BRD4-BD2) bromodomain of BRD4 (Homo sapiens, UniProt O60885)
T1 construct: fused on or other part: GST tag (N-terminal fusion, used for capture on the glutathione acceptor beads)
Experiment: BRD4-H4 tetraacetylated peptide inhibition AlphaScreen
Assay type: binding
Settings: inhibition of interaction of GST-BRD4 bromodomain with biotinylated tetraacetylated histone H4 peptide; table does not say whether BD1 or BD2
Protocol: BRD4-H4 tetraacetylated peptide inhibition AlphaScreen
Compounds are diluted in serial dilution 1:5 in assay buffer from 10 mM stock in DMSO (100 μM start concentration) in white OptiPlate-384 (PerkinElmer). A mix consisting of 15 nM GST-BRD4-BD1 protein (aa 44-168) or 150 nM GST-BRD4-BD2 (aa 333-460) and 15 nM biotinylated Acetyl-Histone H4 (LysS, 8, 12, 16) peptide is prepared in assay buffer (50 mM HEPES pH=7.4; 25 mM NaCl; 0.05% Tween 20; 0.1% bovine serum albumin (BSA); 10 mM dithiothreitol (DTT)). 6 μl of the mix is added to the compound dilutions. Subsequently, 6 μl of premixed AlphaLISA Glutathione Acceptor Beads and AlphaScreen Streptavidin Donor Beads from PerkinElmer (in assay buffer at a concentration of 10 μg/ml each) are added and the samples are incubated for 30 min at RT in the dark (shaking 300 rpm). Afterwards, the signal is measured in a PerkinElmer Envision HTS Multilabel Reader using the AlphaScreen protocol from PerkinElmer. Each plate contains negative controls where biotinylated Acetyl-Histone H4 peptide and GST-BRD4-BD1 or GST-BRD4-BD2 are left out and replaced by assay buffer. Negative control values are entered as low basis value when using the software GraphPad Prism for calculations. Furthermore, a positive control (probe molecule JQ1+ with protein/peptide mix) is pipetted. Determination of IC50 values are carried out using GraphPad Prism 3.03 software (or updates thereof).

Row | IC50 [nM] | Compound
1 | 119 | Cc1noc(C)c1-c1ccc2c(c1)C(c1ccccn1)N(C)C(=O)N2 (stereo not shown) [Example 13, 6-(3,5-Dimethyl-isoxazol-4-yl)-3-methyl-4-pyridin-2-yl-3,4-dihydro-1H-quinazolin-2-one]
2 | 837 | Cc1noc(C)c1-c1cc2c(cn1)NC(=O)N(C)C2c1ccccc1 (stereo not shown) [Example 15, 6-(3,5-Dimethyl-isoxazol-4-yl)-3-methyl-4-phenyl-3,4-dihydro-1H-pyrido[3,4-d]pyrimidin-2-one]
3 | 166 | Cc1noc(C)c1-c1cc2c(cn1)NC(=O)N(C)[C@H]2c1ccccc1 [Example 16, (S) 6-(3,5-Dimethyl-isoxazol-4-yl)-3-methyl-4-phenyl-3,4-dihydro-1H-pyrido[3,4-d]pyrimidin-2-one]
4 | 252 | Cc1noc(C)c1-c1ccc2c(n1)C(c1ccccc1)N(C)C(=O)N2 (stereo not shown) [Example 17, 6-(3,5-Dimethyl-isoxazol-4-yl)-3-methyl-4-phenyl-3,4-dihydro-1H-pyrido[3,2-d]pyrimidin-2-one]
5 | 76 | Cc1noc(C)c1-c1cnc2c(c1)C(c1ccccc1)N(C)C(=O)N2 (stereo not shown) [Example 18, 6-(3,5-Dimethyl-isoxazol-4-yl)-3-methyl-4-phenyl-3,4-dihydro-1H-pyrido[2,3-]pyrimidin-2-one]
6 | 31 | Cc1noc(C)c1-c1ccc2c(c1)C(C)(c1ccccc1)N(C)C(=O)N2 (stereo not shown) [Example 19, 6-(3,5-Dimethyl-isoxazol-4-yl)-3,4-dimethyl-4-phenyl-3,4-dihydro-1H-quinazolin-2-one]
7 | 213 | COc1noc(C)c1-c1ccc2c(c1)C(c1ccccc1)N(C)C(=O)N2 (stereo not shown) [Example 20, 6-(3-Methoxy-5-methyl-isoxazol-4-yl)-3-methyl-4-phenyl-3,4-dihydro-1H-quinazolin-2-one]
8 | 825 | COc1c(-c2c(C)noc2C)ccc2c1C(c1ccccc1)N(C)C(=O)N2 (stereo not shown) [Example 21, 6-(3,5-Dimethyl-isoxazol-4-yl)-5-methoxy-3-methyl-4-phenyl-3,4-dihydro-1H-quinazolin-2-one]

Second part, the compound before the results:

Row | Compound | IC50 [nM]
9 | Cc1noc(C)c1-c1ccc2c(c1)C(c1ccccc1)N(C)C(=O)N2 (stereo not shown) [Example 1, 6-(3,5-Dimethyl-isoxazol-4-yl)-3-methyl-4-phenyl-3,4-dihydro-1H-quinazolin-2-one] | 44
10 | Cc1noc(C)c1-c1ccc2c(c1)[C@H](c1ccccc1)N(C)C(=O)N2 [Example 2, (S) 6-(3,5-Dimethyl-isoxazol-4-yl)-3-methyl-4-phenyl-3,4-dihydro-1H-quinazolin-2-one] | 27
11 | Cc1noc(C)c1-c1ccc2c(c1)C(c1ccccc1)N(C)C(=O)N2C (stereo not shown) [Example 3, 6-(3,5-Dimethyl-isoxazol-4-yl)-1,3-dimethyl-4-phenyl-3,4-dihydro-1H-quinazolin-2-one] | 66
12 | Cc1noc(C)c1-c1ccc2c(c1)C(c1ccccc1)N(CC1CCN(C)CC1)C(=O)N2 (stereo not shown) [Example 4, 6-(3,5-Dimethyl-isoxazol-4-yl)-3-(1-methyl-piperidin-4-ylmethyl)-4-phenyl-3,4-dihydro-1H-quinazolin-2-one] | 31
13 | Cc1noc(C)c1-c1ccc2c(c1)C(c1ccccc1)N(CC1CCOCC1)C(=O)N2 (stereo not shown) [Example 5, 6-(3,5-Dimethylisoxazol-4-yl)-4-phenyl-3-(tetrahydropyran-4-ylmethyl)-1,4-dihydroquinazolin-2-one] | 38
14 | Cc1noc(C)c1-c1ccc2c(c1)C(c1ccccc1)N(Cc1ccccc1)C(=O)N2 (stereo not shown) [Example 6, 3-Benzyl-6-(3,5-dimethylisoxazol-4-yl)-4-phenyl-1,4-dihydroquinazolin-2-one] | 225
15 | Cc1noc(C)c1-c1ccc2c(c1)C(c1ccc(Cl)cc1)N(C)C(=O)N2 (stereo not shown) [Example 7, 4-(4-Chloro-phenyl)-6-(3,5-dimethyl-isoxazol-4-yl)-3-methyl-3,4-dihydro-1H-quinazolin-2-one] | 105
16 | Cc1noc(C)c1-c1ccc2c(c1)C(c1ccccc1)N(C)C(=O)O2 (stereo not shown) [Example 8, 6-(3,5-Dimethyl-isoxazol-4-yl)-3-methyl-4-phenyl-3,4-dihydro-benzo[e][1,3]oxazin-2-one] | 75
17 | Cc1noc(C)c1-c1ccc2c(c1)[C@H](c1ccccc1)N(C)C(=O)O2 [Example 9, (S) 6-(3,5-Dimethyl-isoxazol-4-yl)-3-methyl-4-phenyl-3,4-dihydro-benzo[e][1,3]oxazin-2-one] | 68
18 | Cc1noc(C)c1-c1ccc2c(c1)C(c1ccccc1)OC(=O)N2 (stereo not shown) [Example 10, 6-(3,5-Dimethyl-isoxazol-4-yl)-4-phenyl-1,4-dihydro-benzo[d][1,3]oxazin-2-one] | 423
19 | COc1ccc(CN2C(=O)Oc3ccc(-c4c(C)noc4C)cc3C2c2ccccc2)cc1 (stereo not shown) [Example 12, 6-(3,5-Dimethyl-isoxazol-4-yl)-3-(4-methoxy-benzyl)-4-phenyl-3,4-dihydro-benzo[e][1,3]oxazin-2-one] | 241
